Reference: patent US20150038541A1, “COMPOSITION AND METHODS FOR CELL MODULATION” (APOSIGNAL BIOSCIENCE LLC, priority 2012, published 2015)

Assays:
HeLa cells [1] = experiment: Cell proliferation (growth rate, crystal violet) of HeLa cells with AS-7 by itself; type: cell-based, human
Description: Cell lines were plated at a sparse density in order to measure the rate of growth over a several day interval and obviate the effect of limited culture surface on the growth rate. The impact of AS-7 on cell proliferation became clear after two days and was dramatic after several days. While the impact of AS-7 was modest after two days, it became substantial after more than two days because the reduction in growth rate has the greatest impact on cell number after the cultures have expanded by several population doublings. […] AS-7 inhibited the rate of cell proliferation by 67% at a concentration of approximately 10 μM (FIG. 10). […] The following cell lines were used to determine the effect of AS-7 on the rate of proliferation: HeLa, melanoma […], ovarian A2780, and breast T47D. All cell line were grown in culture medium (RPMI 1640 for the breast cancer cells and Dulbecco's modified Eagle's medium for the other cell lines) containing 10% heat inactivated fetal bovine serum without antibiotics (penicillin and streptomycin).

HeLa cells [2] = experiment: FACS analysis after propidium iodide staining (cell cycle, apoptosis) of HeLa cells; type: cell-based, human
Description: FIG. 15 illustrates that AS-7 evokes accumulation HeLa cells in the G0-G1 phase of the cell cycle. HeLa cells were harvested two days after treatment with or without AS-7, stained with propidium iodide and subjected to analysis by FACS (Fluorescence Activated Cell Sorter).
FIG. 17 illustrates that AS-7 blocks exit from the Go-G1 phase of the cell cycle. HeLa cells were treated with nocodazole which evoked accumulation of the cells in the G2-M phase of the cell cycle (Nocodazole Blocked). The cells were released from the nocodazole block and treated with or without AS-7. After 16 hours the cells were stained with propidium iodide and subjected to analysis by FACS (Fluorescence Activated Cell Sorter).
The appearance of essentially all of the AS-7 treated cells was indistinguishable from that of the untreated cells.
(§1) A single addition of 10 μM AS-7 for 1 day to 7 or more days was sufficient to evoke accumulation in the Go-G1 phase of the cell cycle (FIGS. 15 and 16) (data not shown). […] HeLa cells were treated with nocodazole (100 ng/ml) for 12 h which evoked accumulation of rounded, loosely attached cells in mitosis. The mitotic cells were harvested and treated with or without 10 μM AS-7 in the absence of nocodazole (Released, 16 hours).

breast T47D cells = experiment: FACS cell cycle analysis after propidium iodide staining of breast T47D cells; type: cell-based, human; settings: 10 μM AS-7
Description: FIG. 16 illustrates that AS-7 evokes accumulation of breast T47D cells in the G0-G1 phase of the cell cycle. T47D cells were harvested one, two, or three days after treatment with or without AS-7, stained with propidium iodide and subjected to analysis by FACS (Fluorescence Activated Cell Sorter).
as §1

proteasome = experiment: Proteasome activity measured in lysates of treated cells; type: cell-based
Description: The cytotoxic action of bortezomib is known to be mediated by proteasome inhibition and the induction of apoptosis.

T47D cells = experiment: MTS cell viability of breast cancer T47D cells, bortezomib with or without AS-7; type: cell-based, human; settings: 10 μM AS-7, data not shown
Description: Breast cancer derived cell lines, T47D and 159C, were seeded in a 96 well tissue culture plate (2000 cells per well). The significance of these two lines of breast cancer derived cell lines is that the T47D cells positive for three markers used to optimize the chemotherapeutic treatment, namely HER2 receptor, estrogen receptor, and progesterone receptor. By contrast to the T47D cells, the 159C cells are negative for the three markers. The compounds, 10 μM AS-7 and a range of bortezomib (BioVision, Inc., Milpitas, Calif.) concentrations were added the following day. After 48 hours, MTS was added and absorbance was measured at 490 nm.

HeLa cells [3] = experiment: MTS cell viability of HeLa cells treated with anticancer drug with or without AS-7 (48 hours); type: cell-based, human; settings: for Dose Reduction Index (DRI), combination of AS-7 with bortezomib: CalcuSyn
Description: HeLa cells were seeded in a 96 well tissue culture plate (2000 cells per well). The compounds, 10 μM AS-7 and bortezomib (BioVision, Inc., Milpitas, Calif.) at the concentrations indicated in FIG. 1, were added the following day. AS-7 was prepared according to the Ugi reaction by combination of the four components: isocyanide (III), m-cyanobenzaldehyde (IV), 2-benzoylbenzoic acid (V), and histamine (VI) in refluxing methanol (Ref. http://www.occhem.com/synthesis/2561 2.html). The Medicinal Chemistry unit of Southern Research Institute (2000 Ninth Avenue South Birmingham, Ala. 35205) was contracted by a fee for service agreement to synthesize AS-7.
After 48 hours, MTS (3-(4,5-dimethylthiazol-2-yl)-5-(3-carboxymethoxyphenyl)-2-(4-sulfophenyl)-2H-tetrazolium) was added and absorbance was measured at 490 nm. […] Values in FIG. 1 are relative to controls that contained only the vehicle in which the drugs were dissolved. Vehicle had no effect on cell viability. Error bars in FIG. 1 are not visible if they are smaller than the symbols. […]
HeLa cells were seeded in a 96 well tissue culture plate (2000 cells per well). The compounds, 10 μM AS-7 and bortezomib at the concentrations indicated in FIG. 9 were added the following day. After 48 hours, MTS was added and absorbance was measured at 490 nm. […] Values are relative to controls that contained only the vehicle in which the drugs were dissolved. Vehicle had no effect on cell viability.

[4] = system: ovarian tumor derived IGROV cells; experiment: Crystal violet cell viability of ovarian IGROV cells, bortezomib with or without AS-7 (72 hours); type: cell-based; settings: 10 μM AS-7
Description: Ovarian tumor-derived cell lines, IGROV and A2780, were seeded in a 96 well tissue culture plate (2000 cells per well). The compounds, 10 μM AS-7 and bortezomib (BioVision, Inc., Milpitas, Calif.) at the concentrations indicated in the figures, were added the following day. AS-7 was prepared as described in Example I above. […] Values are relative to cells that with the vehicle in which the drugs were dissolved. Vehicle had no effect on cell viability. Error bars in FIG. 6 and FIG. 7 are not shown if they are smaller than the symbols.

## N#Cc1cccc(C(C(=O)NCC(c2ccccc2)c2ccccc2)N(CCc2c[nH]cn2)C(=O)c2ccccc2C(=O)c2ccccc2)c1 (stereo not shown) [AS-7]
HeLa cells [1]; AS-7 alone
  rate of growth of HeLa cells: moderately decreased
HeLa cells [1]; AS-7 by itself, each of the cancer-derived cell lines tested
  cell viability, microscopic observation of the cultures: did not decrease cell viability
HeLa cells [1]; HeLa cells (FIG. 10), approximately 10 μM AS-7
  inhibition of the rate of cell proliferation: 67%
HeLa cells [1]; HeLa cells, 10 μM AS-7, vehicle doubling time 0.9 days
  increase of doubling time: 1.3 fold
HeLa cells [1]; Homo sapiens, HeLa cells (FIG. 10), AS-7 by itself, read-out: IC50 for growth inhibition
  IC50: ~7 µM
HeLa cells [2]; HeLa cells treated with AS-7 for several days, data not shown
  induction of apoptosis (FACS, propidium iodide): failed to induce apoptosis
HeLa cells [2]; HeLa cells, 10 μM AS-7
  cell cycle distribution (FACS, propidium iodide): evoked the accumulation
HeLa cells [2]; HeLa cells, 10 μM AS-7, 16 hours after release
  cell cycle progression after release from nocodazole block: blocked exit from the G0-G1 phase
Breast T47D cells
  cell cycle distribution (FACS, propidium iodide): evoked the accumulation
proteasome; cells treated with 10 ILIM AS-7 alone for various times
  effect on proteasome activity: no effect
proteasome; data not shown
  effect of AS-7 on proteasome inhibition by bortezomib: did not increase
T47D cells
  potentiation of the cytotoxic action of bortezomib: markedly potentiated
HeLa cells [3]; 10 μM AS-7, 48 hours, MTS
  shift of NLVS concentration dependence (HeLa cell viability): markedly shifted the NLVS concentration dependence to the left
HeLa cells [3]; AS-7 alone
  HeLa cell viability: no loss of cell viability
HeLa cells [3]; HeLa cells, 12 nM bortezomib
  Dose Reduction Index (DRI), combination of AS-7 with bortezomib: 7.3
HeLa cells [3]; HeLa cells, 16 nM bortezomib
  Dose Reduction Index (DRI), combination of AS-7 with bortezomib: 18
HeLa cells [3]; HeLa cells, 20 nM bortezomib
  Dose Reduction Index (DRI), combination of AS-7 with bortezomib: 72
HeLa cells [3]; HeLa cells, 10 μM AS-7
  increase in potency of the cytotoxic action of bortezomib by AS-7: approximately 3.5 fold
[4]
  potentiation of the cytotoxic action of bortezomib (loss of cell viability): markedly potentiates
